From PubChem BioAssay AID1195 (EPA DSSTox, 2008)

Test system: human maximum recommended daily dose, FDA database
Assay: DSSTox (FDAMDD) FDA Maximum (Recommended) Daily Dose Database
Conditions: stronger effect = lower value
How it was run: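 MRDD values come from clinical trials with daily oral dosing, usually for 3–12 months, for the average adult, in mg/day converted to mg/kg-bw/day assuming 60 kg. Antineoplastic mg/m2 doses are divided by 37. Activity score maps log10(1/MRDD mmol) onto 1–100.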

[1] = TherapeuticCategory: antibacterial
[2] = TherapeuticCategory: antidiabetic
[3] = TherapeuticCategory: antihypertensive
[4] = TherapeuticCategory: antidepressant

SMILES: Cc1cc(O)c2ccccc2c1O
- maximum recommended daily dose (mmol/kg-bw/day) (TherapeuticCategory: prothrombogenic vitamin): 0.000959

SMILES: CCOc1ccc2ccccc2c1C(=O)N[C@@H]1C(=O)N2[C@@H]1SC(C)(C)[C@@H]2C(=O)O
- maximum recommended daily dose (mmol/kg-bw/day) [1]: 0.241

SMILES: Cc1ccc2c(-c3ccccc3)nc(=O)n(C(C)C)c2c1
- maximum recommended daily dose (mmol/kg-bw/day) (TherapeuticCategory: anti inflammatory): 0.0719

SMILES: CCCNC(=O)NS(=O)(=O)c1ccc(Cl)cc1
- maximum recommended daily dose (mmol/kg-bw/day) [2]: 0.0452

SMILES: CC1C2Cc3ccc(O)cc3C1(C)CCN2CC1CC1 (stereo unspecified)
- maximum recommended daily dose (mmol/kg-bw/day) (TherapeuticCategory: narcotic antagonist): 0.000246

SMILES: C#C[C@]1(O)CC[C@H]2[C@@H]3[C@H](C)CC4=C(CCC(=O)C4)[C@H]3CC[C@@]21C
- maximum recommended daily dose (mmol/kg-bw/day) (TherapeuticCategory: treatment of menopausal syndrome): 0.000133

SMILES: Oc1cc(O)c2c(c1)O[C@H](c1ccc(O)c(O)c1)[C@@H](O)C2
- maximum recommended daily dose (mmol/kg-bw/day) (TherapeuticCategory: hepatoprotectant, antidiarrheal): 0.115

SMILES: CCC(C)(C)N=C(N)NC#N
- maximum recommended daily dose (mmol/kg-bw/day) [3]: 0.0674

SMILES: CN[C@@H]1CCc2[nH]c3ccc(C(N)=O)cc3c2C1
- maximum recommended daily dose (mmol/kg-bw/day) (TherapeuticCategory: antimigraine): 0.000514

SMILES: CC(C)COC(=O)c1ccc(N)cc1
- maximum recommended daily dose (mmol/kg-bw/day) (TherapeuticCategory: topical anesthetic): 0.0345

SMILES: CN1c2cc(O)c(N=NC(N)=O)cc2CC1S(=O)(=O)O (stereo unspecified)
- maximum recommended daily dose (mmol/kg-bw/day) (TherapeuticCategory: hemostatic): 0.00931

SMILES: COc1ccc(/C=C/C(=O)Nc2ccccc2C(=O)O)cc1OC
- maximum recommended daily dose (mmol/kg-bw/day) (TherapeuticCategory: antiallergic): 0.0153

SMILES: CCN(C(C)=O)c1cccc(-c2ccnc3c(C#N)cnn23)c1
- maximum recommended daily dose (mmol/kg-bw/day) (TherapeuticCategory: hypnotic, sedative): 0.00164

SMILES: C#C[C@]1(O)CC[C@H]2[C@@H]3CCC4=C(CCC(=O)C4)[C@H]3CC[C@@]21C
- maximum recommended daily dose (mmol/kg-bw/day) (TherapeuticCategory: progestogen): 0.00224

SMILES: Cc1ccc(Cl)c(OCC(O)CNC(C)(C)C)c1 (stereo unspecified)
- maximum recommended daily dose (mmol/kg-bw/day) (TherapeuticCategory: antihypertensive, antianginal, antiarrhythmic, antiglaucomic): 0.0245

SMILES: NCC(CC(=O)O)c1ccc(Cl)cc1 (stereo unspecified)
- maximum recommended daily dose (mmol/kg-bw/day) (TherapeuticCategory: skeletal muscle relaxant): 0.00622

SMILES: CCn1ccc(NS(=O)(=O)c2ccc(N)cc2)nc1=O
- maximum recommended daily dose (mmol/kg-bw/day) [1]: 0.0567

SMILES: C[C@]1(Cn2ccnn2)[C@H](C(=O)O)N2C(=O)C[C@H]2S1(=O)=O
- maximum recommended daily dose (mmol/kg-bw/day) [1]: 0.0833

SMILES: CN(C)CC/C=C1/c2ccccc2COc2ccccc21
- maximum recommended daily dose (mmol/kg-bw/day) [4]: 0.0179

SMILES: CCC(OC(C)=O)C(CC(C)N(C)C)(c1ccccc1)c1ccccc1 (stereo unspecified)
- maximum recommended daily dose (mmol/kg-bw/day) (TherapeuticCategory: none): 0.00659

SMILES: CCC1(C2=CCCCC2)C(=O)NC(=O)NC1=O
- maximum recommended daily dose (mmol/kg-bw/day) (TherapeuticCategory: sedative, hypnotic): 0.0282

SMILES: C[C@H]1O[C@@H](O[C@H]2[C@@H](O)C[C@H](O[C@H]3[C@@H](O)C[C@H](O[C@H]4CC[C@@]5(C)[C@H](CC[C@@H]6[C@@H]5C[C@@H](O)[C@]5(C)[C@@H](C7=CC(=O)OC7)CC[C@]65O)C4)O[C@@H]3C)O[C@@H]2C)C[C@H](O)[C@@H]1O
- maximum recommended daily dose (mmol/kg-bw/day) (TherapeuticCategory: cardiotonic): 1.28e-08

SMILES: CC(Cc1ccc(O)cc1)NCC(O)c1cc(O)cc(O)c1 (stereo unspecified)
- maximum recommended daily dose (mmol/kg-bw/day) (TherapeuticCategory: bronchodilator, tocolytic): 8.8e-05

SMILES: CN1C(=O)CN=C(c2ccccc2)c2cc([N+](=O)[O-])ccc21
- maximum recommended daily dose (mmol/kg-bw/day) (TherapeuticCategory: anticonvulsant, skeletal muscle relaxant): 0.000282

SMILES: CO[C@H]1C[C@H](O[C@H]2[C@H](C)O[C@@H](O[C@@H]3/C(C)=C/C[C@@H]4C[C@@H](C[C@]5(CC[C@H](C)[C@@H](C(C)C)O5)O4)OC(=O)[C@@H]4C=C(C)[C@@H](O)[C@H]5OC/C(=C\C=C\[C@@H]3C)[C@]54O)C[C@@H]2OC)O[C@@H](C)[C@@H]1O
- maximum recommended daily dose (mmol/kg-bw/day) (TherapeuticCategory: anthelmintic): 0.000174

SMILES: CCCCc1ncc(/C=C(\Cc2cccs2)C(=O)O)n1Cc1ccc(C(=O)O)cc1
- maximum recommended daily dose (mmol/kg-bw/day) [3]: 0.0313

SMILES: CCOC(=O)C1=C(COCCN)NC(C)=C(C(=O)OC)C1c1ccccc1Cl (stereo unspecified)
- maximum recommended daily dose (mmol/kg-bw/day) (TherapeuticCategory: antianginal, antihypertensive): 0.000408

SMILES: O=c1[nH]c(=S)[nH]cc1I
- maximum recommended daily dose (mmol/kg-bw/day) (TherapeuticCategory: thyroid inhibitor): 0.0197

SMILES: CCc1nn(CCCN2CCN(c3cccc(Cl)c3)CC2)c(=O)n1CC
- maximum recommended daily dose (mmol/kg-bw/day) [4]: 0.00662

SMILES: CNC1(C)C2CCC(C2)C1(C)C (stereo unspecified)
- maximum recommended daily dose (mmol/kg-bw/day) [3]: 0.00249

SMILES: Cc1onc(-c2c(F)cccc2Cl)c1C(=O)N[C@@H]1C(=O)N2[C@@H]1SC(C)(C)[C@@H]2C(=O)O
- maximum recommended daily dose (mmol/kg-bw/day) [1]: 0.147

SMILES: N[C@@H](C(=O)N[C@@H]1C(=O)N2C(C(=O)O)=C(Cl)CS[C@H]12)c1ccccc1
- maximum recommended daily dose (mmol/kg-bw/day) [1]: 0.068

SMILES: O=C(CCCCC(=O)Nc1c(I)cc(I)c(C(=O)O)c1I)Nc1c(I)cc(I)c(C(=O)O)c1I
- maximum recommended daily dose (mmol/kg-bw/day) (TherapeuticCategory: diagnostic aid): 0.147

SMILES: NC(=O)c1cccnc1
- maximum recommended daily dose (mmol/kg-bw/day) (TherapeuticCategory: vitamin): 0.0682

SMILES: NC(N)=NC(N)=NCCc1ccccc1
- maximum recommended daily dose (mmol/kg-bw/day) [2]: 0.00814

SMILES: O=c1[nH]cnc2[nH]ncc12
- maximum recommended daily dose (mmol/kg-bw/day) (TherapeuticCategory: antiurolithic): 0.0977
